# Assay results from patent publication US5703239A, “Indanylpiperidines as melatonergic agents” (Bristol-Myers Squibb Company, priority 1996, dated 1997).
# What was measured:
# [1] = literature: Dubocovich et al, European Journal of Pharmacology, 182, (1990), pages 313-325; cited from earlier work
# human ML1B receptor = molecular target: T1, human ML1B receptor (Homo sapiens, UniProt P49286); test: Binding to human melatonergic receptors (2-[125I]-iodomelatonin, NIH 3T3 cell membranes, human ML1B receptor); settings: IC50 class; 200 pM 2-[125I]-iodomelatonin, 37° C., 1 hour, membranes of NIH 3T3 cells transfected with human ML1B receptor; read-out: Melatonin Binding
# T1 construct: expressed in transfected cells; host or cells: NIH 3T3 cells (stably transfected; obtained from S. M. Reppert)
# T1 sequence (P49286 1-362): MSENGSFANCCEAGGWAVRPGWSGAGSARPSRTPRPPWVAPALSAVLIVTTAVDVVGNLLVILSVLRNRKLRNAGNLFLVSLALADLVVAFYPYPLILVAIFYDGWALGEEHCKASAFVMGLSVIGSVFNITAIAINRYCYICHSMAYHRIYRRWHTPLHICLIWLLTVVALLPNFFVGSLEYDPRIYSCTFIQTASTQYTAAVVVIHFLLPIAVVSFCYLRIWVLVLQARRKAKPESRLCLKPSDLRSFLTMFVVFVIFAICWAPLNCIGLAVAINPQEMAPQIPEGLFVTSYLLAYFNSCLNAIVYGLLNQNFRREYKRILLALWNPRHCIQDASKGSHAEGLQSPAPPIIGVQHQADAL
# Experimental: Measurement of Binding to Human Melatonergic Receptors The melatonergic binding affinities of various compounds of Formula I were determined by the method of Reppert, S. M., Weaver, D. R., and Ebisawa, R. (Neuron, Volume 13, 1177-1185, 1994). The assays were incubated at 37° C. for 1 hour, and the reaction was terminated by filtration. The filters were washed with wash buffer. […] The reagents, membrane and other techniques used in the melatonergic binding assays are more fully described below: […] Reagents: (a) 50 mM Tris buffer containing 12.5 mM MgCl2, and 2 mM EDTA, pH 7.4 at 37° C. (b) Wash buffer: 20 mM Tris base containing 2 mM MgCl2. pH 7.4 at room temperature. (c) Melatonin (10^-5 M final concentration). (d) 2-[^125 I]-Iodomelatonin, 200 pM final concentration Source: NEN 2. Membrane preparation: NIH 3T3 cells stably transfected with the human ML1B receptor were obtained from S. M. Reppert and maintained. Cells were pelleted when confluent. The supernatant was discarded and the pellets frozen. For preparing membrane homogenates, the pellets are thawed on ice and resuspended in TME buffer, Tris base, MgCl2, EDTA (pH 7.4 at 37° C.), supplemented with aprotinin, leupeptin, and […]. The cells were then homogenized and centrifuged. The resulting pellet was resuspended with a Dounce homogenizer in TME and frozen. At assay, a small aliquot was thawed on ice and resuspended in TME buffer.
# [2] = test system: human melatonin receptors; settings: result in words, luzindole, background section; cited from earlier work
SMILES,IC50 (human ML1B receptor) [nM],antidepressant-like effects [1],binds to human melatonin receptors [2]
CC(=O)NCCc1c(Cc2ccccc2)[nH]c2ccccc12 [Luzindole],100 to 250,exhibits antidepressant-like effects,binds to human melatonin receptors
O=C(C1CC1)N1CCC(C2CCc3ccc(OC(F)(F)F)cc32)CC1 (stereo not drawn) [1-(Cyclopropylcarbonyl)-4-[6-(trifluoromethoxy)-indan-1-yl]piperidine],10 to 100,–,–
O=C(C1CC1)N1CCC(C2CCc3ccc(O)cc32)CC1 (stereo not drawn) [N-(Cyclopropylcarbonyl)-4-(6-hydroxy-indan-1-yl)piperidine],10 to 100,–,–
COc1cccc(CCCOc2ccc3c(c2)C(C2CCN(C(=O)C4CC4)CC2)CC3)c1 (stereo not drawn) [1-(Cyclopropylcarbonyl)-4-[6-[3-(3-methoxyphenyl)propyloxy]-indan-1-yl]piperidine],10 to 100,–,–
"COc1ccc2c(c1)C(C1CCN(C(=O)C(F)(F)F)CC1)CC2 (single isomer, unassigned; (+)) [(+)-4-(6-Methoxy-indan-1-yl)-1-(trifluoroacetyl)piperidine]",10 to 100,–,–
CCNC(=O)N1CCC(C2CCc3ccc(OCCCc4cccc(OC)c4)cc32)CC1 (stereo not drawn) [N-Ethyl-4-[6-[3-(3-methoxyphenyl)propyloxy]-indan-1-yl]piperidine-1-carboxamide],10 to 100,–,–
"CCNC(=O)N1CCC(C2CCc3ccc(OC)cc32)CC1 (single isomer, unassigned; (+)) [(+)N-Ethyl-4-(6-methoxy-indan-1-yl)piperidine-1-carboxamide]",10 to 100,–,–
"COCC(=O)N1CCC(C2CCc3ccc(OC)cc32)CC1 (single isomer, unassigned; (+)) [(+)-1-(2-Methoxyacetyl)-4-(6-methoxy-indan-1-yl)piperidine]",100 to 250,–,–
CCCCCCCOc1ccc2c(c1)C(C1CCN(C(=O)NCC)CC1)CC2 (stereo not drawn) [N-Ethyl-4-[6-(n-heptyloxy)-indan-1-yl]piperidine-1-carboxamide],< 10,–,–
CCNC(=O)N1CCC(C2CCCc3ccc(OC)cc32)CC1 (stereo not drawn) [N-Ethyl-4-(7-methoxy-tetralin-1-yl)piperidine-1-carboxamide],10 to 100,–,–
CCNC(=O)N1CCC(C2CCc3cc(F)c(OC)cc32)CC1 (stereo not drawn) [N-Ethyl-4-(5-fluoro-6-methoxy-indan-1-yl)piperidine-1-carboxamide],10 to 100,–,–
COc1ccc2c(c1)C(C1CCN(C(=O)c3ccoc3)CC1)CC2 (stereo not drawn) [1-[(3-Furanyl)carbonyl]4-(6-methoxy-indan-1-yl)-piperidine],< 10,–,–
CC(C)C(=O)N1CCC(C2CCc3ccc(F)cc32)CC1 (stereo not drawn) [4-(6-Fluoro-indan-1-yl)-1-(2-methylpropanoyl)piperidine],< 10,–,–
CNC(=O)N1CCC(C2CCc3ccccc32)CC1 (stereo not drawn) [N-Methyl-4-(indan-1-yl)-piperidine-1-carboxamide],< 10,–,–
COc1ccc2c(c1)C(C1CCN(C=O)CC1)CC2 (stereo not drawn) [1-Formyl-4-(6-methoxy-indan-1-yl)piperidine],< 10,–,–
COc1cc2c(cc1F)CCC2C1CCN(C(C)=O)CC1 (stereo not drawn) [1-Acetyl-4-(5-fluoro-6-methoxy-indan-1-yl)piperidine],< 10,–,–
CCNC(=O)N1CCC(C2CCc3ccc(CC)cc32)CC1 (stereo not drawn) [N-Ethyl-4-(6-ethyl-indan-1-yl)piperidine-1-carboxamide],< 10,–,–
"COc1ccc2c(c1)C(C1CCN(C=O)CC1)CC2 (single isomer, unassigned; (-)) [(-)-1-Formyl-4-(6-methoxy-indan-1-yl)piperidine]",< 10,–,–
COc1ccc2c(c1)C(C1CCN(C(=O)C(C)C)CC1)CC2 (stereo not drawn) [4-(6-methoxy-indan-1-yl)-1-(2-methylpropanoyl)piperidine],< 10,–,–
CCc1ccc2c(c1)C(C1CCN(C(=O)C3CC3)CC1)CC2 (stereo not drawn) [1-(Cyclopropylcarbonyl)-4-(6-ethyl-indan-1-yl)piperidine],< 10,–,–
CCNC(=O)N1CCC(C2CCc3ccc(OC(F)(F)F)cc32)CC1 (stereo not drawn) [N-Ethyl-4-[6-(trifluoromethoxy)-indan-1-yl]piperidine-1-carboxamide],10 to 100,–,–

# More lines, main results first:
IC50 (human ML1B receptor) [nM],SMILES,antidepressant-like effects [1],binds to human melatonin receptors [2]
< 10,COc1cc2c(cc1F)CCC2C1CCN(C(=O)C2CC2)CC1 (stereo not drawn) [1-(Cyclopropylcarbonyl)-4-(5-fluoro-6-methoxy-indan-1-yl)piperidine],–,–
< 10,"CNC(=O)N1CCC(C2CCc3ccc(OC)cc32)CC1 (single isomer, unassigned; (-)) [(-)-N-Methyl-4-(6-methoxy-indan-1-yl)piperidine-1-carboxamide]",–,–
< 10,"COc1ccc2c(c1)C(C1CCN(C(=O)C3CC3)CC1)CC2 (single isomer, unassigned; (+)) [(+)-1-(Cyclopropylcarbonyl)-4-(6-methoxy-indan-1-yl)piperidine]",–,–
< 10,COc1ccc2c(c1)C(C1CCN(C(=O)c3cccn3C)CC1)CC2 (stereo not drawn) [4-(6-Methoxy-indan-1-yl)-1-[(1-methyl-pyrrol-2-yl)carbonyl]piperidine],–,–
< 10,"COc1ccc2c(c1)C(C1CCN(C(=O)C(F)(F)F)CC1)CC2 (single isomer, unassigned; (-)) [(-)-4-(6-methoxy-indan-1-yl)-1-(trifluoroacetyl)piperidine]",–,–
< 10,COc1ccc2c(c1)C(C1CCN(C(=O)c3ccc[nH]3)CC1)CC2 (stereo not drawn) [4-(6-Methoxy-indan-1-yl)-1-[(1H-pyrrol-2-yl)carbonyl]piperidine],–,–
< 10,"COc1ccc2c(c1)C(C1CCN(C(=O)c3csnn3)CC1)CC2 (stereo not drawn) [4-(6-Methoxy-indan-1-yl)-1-[(1,2,3-thiadiazol-4-yl)carbonyl]piperidine]",–,–
< 10,COc1ccc2c(c1)C(C1CCN(C(=O)c3ccsc3)CC1)CC2 (stereo not drawn) [4-(6-Methoxy-indan-1-yl)-1-[(3-thienyl)carbonyl]piperidine],–,–
< 10,COc1ccc2c(c1)C(C1CCN(C(=O)C3=CCCC3)CC1)CC2 (stereo not drawn) [1-[(Cyclopent-1-en-1-yl)carbonyl]-4-(6-methoxy-indan-1-yl)piperidine],–,–
< 10,COc1ccc2c(c1)C(C1CCN(C(=O)c3sccc3C)CC1)CC2 (stereo not drawn) [4-(6-Methoxy-indan-1-yl)-1-[(3-methyl-thien-2-yl)carbonyl]piperidine],–,–
